Data reported in patent US20120220039A1, “METHOD AND SYSTEM FOR DETECTING RESIDUAL POISON IN HUMAN BODY” (THE HONG KONG UNIVERSITY OF SCIENCE AND TECHNOLOGY, priority 2009, published 2012).

Test: Drug analysis of abuser in different hair segments by HPLC-Chip-MS/MS
Type: in vivo, human
Description: Parent drug and its metabolites normally appear in hair after 5-7 day once administered. Hair normally grows at 0.75-1 cm/month. Drug taking habit or history can be reflected by analysis in different hair segments.
Hair specimens were collected and cut into different lengths. With the application of different conditions in Examples 1-8, drug distribution in different hair segments was illustrated (FIGS. 29 and 30).

[1] = Hair segment sample no. 1, hair length 0-4 cm, time 0-3 month
[2] = Hair segment sample no. 2, hair length 4-8 cm, time 3-6 month
[3] = Hair segment sample no. 3, hair length 8-12 cm, time 6-9 month
[4] = Hair segment sample no. 4, hair length 12-16 cm, time 9-12 month
[5] = Hair segment sample no. 5, hair length 16-20 cm, time 12-15 month
[6] = Hair segment sample no. 6, hair length 20-24 cm, time 15-18 month
[7] = Hair segment sample no. 7, hair length 24-28 cm, time 18-21 month
[8] = Hair segment sample no. 8, hair length 28-32 cm, time 21-24 month

Compound: Methadone
- Concentration in hair segment [1]: 18.7 pg/mg
- Concentration in hair segment [2]: 18.3 pg/mg
- Concentration in hair segment [3]: 18.4 pg/mg
- Concentration in hair segment [4]: 18.3 pg/mg
- Concentration in hair segment [5]: 18.3 pg/mg
- Concentration in hair segment [6]: 18.3 pg/mg
- Concentration in hair segment [7]: 18.3 pg/mg
- Concentration in hair segment [8]: 18.4 pg/mg

Compound: CN[C@@H](C)Cc1ccccc1 [Methamphetamine]
- Concentration in hair segment [1]: 117.6 pg/mg
- Concentration in hair segment [2]: 263.6 pg/mg
- Concentration in hair segment [3]: 198.2 pg/mg
- Concentration in hair segment [4]: 201.1 pg/mg
- Concentration in hair segment [5]: 107.3 pg/mg
- Concentration in hair segment [6]: 920 pg/mg
- Concentration in hair segment [7]: 156.3 pg/mg
- Concentration in hair segment [8]: 273.5 pg/mg
